# From patent US6331636A, “Therapeutically useful 2-aminotetralin derivatives” (priority 1992, dated 2001)
# Where a name gives a salt, the structure may show the parent alone.
# Assays:
# [1] = background, cited from earlier work
# [2] = system: dopamine receptors; details: background; cited from earlier work
# [3] = cited from earlier work
# [4] = system: 5-HT receptor; details: J. Med. Chem., 30, 2105 (1987); cited from earlier work
# [5] = Hypothermia in mice after subcutaneous injection; format: in vivo; details: Mus musculus, sc, dose depressing body temperature by 2° C. in two of four mice
# Procedure: Starting with a dose of 30 mg/kg, four mice are injected subcutaneously with test compound. Twenty minutes later, the number of animals whose body temperature has decreased by 2° C. or more are counted. […] The time for last statistically significant drug affect on mean body temperature is indicated in minutes. […] Potency is given as mg/kg ED50 (dose required to depress temperature in two of four mice) as measured by Spearman-Karber statistics.
compound,measurement,setting,value
CC1(C)CC(=O)N(CCCCN2CCN(c3ncccn3)CC2)C(=O)C1 [Gepirone],anxiolytic / anti-anxiety activity,[1]; clinical,clinically demonstrated anti-anxiety activities
same,effect on depressive endpoints,[1]; some patients,ameliorative effects on some depressive endpoints in some patients
same,dopamine receptor activity,[2],also has dopamine antagonist properties
"CN(C)C1CCc2ccc(O)cc2C1(C)C (stereo not drawn) [1,1-Dimethyl-2-(N,N-dimethylamino)-7-hydroxytetralin]",analgesic and intestinal activity,"[3]; Chem. Ab., 79: 146294b",analgesic and intestinal movement accelerating actions
CN1CCc2cccc3c2[C@H]1Cc1ccc(O)c(O)c1-3 [apomorphine],dopamine receptor activity,[2],able to activate the dopamine autoreceptors as well as the post synaptic dopamine receptors
CCCN(CCC)C1CCc2cccc(O)c2C1C (stereo not drawn) [8-hydroxy-1-methyl-2-(di-n-propylamino)tetralins],5-HT receptor agonism,[4],5-HT receptor agonists
"C=CCN[C@H]1CCc2cccc(OC)c2[C@H]1CC=C (relative stereo) [Example 26, Compound 1, Cis-(±)-1,2,3,4-Tetrahydro-8-methoxy-N,1-di-(2-pro-penyl)-2-naphthalenamine Hydrochloride]",ED50,[5],2.31 mg/kg
O=C1CC2(CCCC2)CC(=O)N1CCCCN1CCN(c2ncccn2)CC1 [Buspirone],dopamine receptor activity,[2],antagonizes dopamine receptors at the same dose it stimulates 5-HT1A receptors
COc1cccc2c1CCC(NC1CC1)C2C (stereo not drawn) [1-methyl-2-(cyclopropylamino)-5-methoxytetralin],local anesthetic activity,"[3]; J. Pharm. Sci., 67, 880-82 (1978)",local anesthetic activity
